Data reported in patent US9592223B2, “Small molecule inhibitors of MALT1” (Cornell University, priority 2012, dated 2017).

Tests used:
[1] = tested on: cleavage of A20, BCL10 and RELB; test: Cleavage of MALT1 substrates with MG-132 in HBL-1 and TMD8 cell lines, Western blot; format: cell-based, human; settings: 2 μM for 30 minutes, then 5 μM MG-132 for one or two hour
Experimental: As these proteins are directed to proteasomal degradation after cleavage (Coornaert et al., 2008; Hailfinger et al., 2011; Rebeaud et al., 2008), we used the proteasome inhibitor MG-132 to facilitate visualization of cleavage products (FIG. 4A).
Equal amounts of total protein (20-75 μg) were separated on sodium dodecyl sulfate-polyacrylamide gel electrophoresis (SDS-PAGE), and electrotransferred onto nitrocellulose membranes. Membranes were incubated with primary antibodies (MALT1, BCL-10, CYLD from Santa Cruz Biotechnologies, Santa Cruz, Calif.; A20 from eBioscience, San Diego, Calif.; phospho-IκB-α, IκB-α, c-REL, RELB from Cell Signaling, Danvers, Mass. and α-Tubulin from Sigma), followed by secondary antibodies conjugated to horseradish peroxidase, which were detected by chemiluminescence (Pierce, Thermo Scientific, Rockford, Ill.).

OCI-Ly1 = test: CFSE dilution assay by flow cytometry, GCB-DLBCL line; format: cell-based, human; settings: viable cells at 48, 72 and 96 h
Experimental: Cell proliferation was examined using the CFSE dilution assay by flow cytometry on viable cells at 48, 72 and 96 h. […] Trypan blue exclusion and apoptosis assessed by Annexin V^+ DAPI^− flow cytometry was measured every 48 hr for a period of 14 days.
CFSE covalently labels long-lived intracellular molecules with carboxyfluorescein. Following each cell division, fluorescent molecules dilute in daughter cells, allowing comparative study of the kinetics of cell division. Cells were stained with DAPI (Sigma), followed by flow cytometry. DAPI^neg cells were gated for analysis.

[2] = Toxicity 1: increasing daily IP doses over 10 days; format: in vivo, C57BL/6 mice; settings: daily IP 0.05 to 25 mg/kg over 10 days, cumulative 51.1 mg/kg
Text: Brain, heart, lung, liver, kidney, bowel, spleen, thymus and bone marrow tissues were examined. […] Myeloid to erythroid ratio was 4-5:1. Megakaryocytes were normal in number and distribution. There was no fibrosis nor increased number of blasts or lymphocytes. Complete peripheral blood counts, biochemistry and liver function tests were normal (Table 2).

[3] = tested on: TMD8 ABC-DLBCL xenografts; test: TMD8 xenograft in NOD-SCID mice; format: in vivo; settings: IP 25 mg/kg/day
Experimental: Animals were sacrificed 24 hr after the fourteenth injection.
Eight-week old male SCID NOD.CB17-Prkdc^scid/J mice were subcutaneously injected with low-passage 10^7 human HBL-1, TMD8 or OCI-Ly1 cells. Treatment was administered by intra-peritoneal injection. Tumor volume was monitored by three-weekly digital calipering. All procedures followed US NIH protocols and were approved by the Animal Institute Committee of the Weill Cornell Medical College.
Eight-week old male SCID NOD.CB17-Prkdc^scid/J mice were purchased from Jackson Laboratories (Bar Harbor, Minn.) and housed in a clean environment. Mice were subcutaneously injected with low-passage 10^7 human TMD8 or OCI-Ly1 cells in 50% matrigel (BD Biosciences, #354234). Treatment was initiated when tumors reached an average size of 120 mm^3 (17 days post-transplantation). Drugs were reconstituted in DMSO and stored at −80° C. until used and were administered by intra-peritoneal injection. Tumor volume was monitored by three-weekly digital calipering (Fisher Scientific, Thermo Scientific, Rockford, Ill.) and calculated using the formula (smallest diameter^2×largest diameter)/2. Data were expressed as mean±SEM, and differences were considered statistically significant at p<0.05 by paired Student's t-test. All procedures involving animals followed US NIH protocols and were approved by the Animal Institute Committee of the Weill Cornell Medical College of Cornell University.
Paraffin-embedded tumor xenografts were sectioned, dewaxed and submitted to antigen retrieval. For IF-P, Alexa Fluor-488 conjugated secondary antibodies from Invitrogen where used and cell nuclei where counterstained with DAPI. Fluorescent images were taken using an Axiovert 200M fluorescent microscope (Carl Zeiss Inc., Thornwood, N.Y.). Oberkochen, Germany). For IHC, biotin-conjugated secondary antibodies where used. Then avidin/biotin peroxidase was applied to the slides (Vector Laboratories). Color was developed with diaminobenzoate chromogen peroxidase substrate (Vector) and counterstained with hematoxilin-eosyn. […]

Question: For `COCCOc1nc(-c2ccc(Cl)c(Cl)c2)n(-c2ccc(NC(=O)CCl)cc2)n1` [MI-2], which “cleaved forms of A20, BCL10 and RELB” value [1] is on record?
Answer: diminished the abundance of cleaved forms and/or increased the abundance of full-length proteins

Question: And the “cell proliferation (CFSE dilution)” value (OCI-Ly1)?
Answer: did not affect

Question: What about the “physical indicators of sickness” value [2] of the same compound?
Answer: no evidence of lethargy, weight loss

Question: What about the “xenograft growth vs. vehicle” value ([3]; fourteen injections, p=0.015) of the same compound?
Answer: profoundly suppressed the growth

Question: What about the “apoptotic cells (TUNEL assay)” value ([3]; p<0.0001) of the same compound?
Answer: significant increase in apoptotic cells

Question: And the “proliferation (Ki-67 staining)” value ([3]; p=0.0006)?
Answer: significant decrease in proliferation
